For ten compounds, IC50 results are on record in patent US6486185B1, “3-heteroarylidene-2-indolinone protein kinase inhibitors” (Sugen, Inc., priority 1997, dated 2002).

pIC50: −log10 of the molar value.

T1 sequence (P08069 31-1367, species assumed): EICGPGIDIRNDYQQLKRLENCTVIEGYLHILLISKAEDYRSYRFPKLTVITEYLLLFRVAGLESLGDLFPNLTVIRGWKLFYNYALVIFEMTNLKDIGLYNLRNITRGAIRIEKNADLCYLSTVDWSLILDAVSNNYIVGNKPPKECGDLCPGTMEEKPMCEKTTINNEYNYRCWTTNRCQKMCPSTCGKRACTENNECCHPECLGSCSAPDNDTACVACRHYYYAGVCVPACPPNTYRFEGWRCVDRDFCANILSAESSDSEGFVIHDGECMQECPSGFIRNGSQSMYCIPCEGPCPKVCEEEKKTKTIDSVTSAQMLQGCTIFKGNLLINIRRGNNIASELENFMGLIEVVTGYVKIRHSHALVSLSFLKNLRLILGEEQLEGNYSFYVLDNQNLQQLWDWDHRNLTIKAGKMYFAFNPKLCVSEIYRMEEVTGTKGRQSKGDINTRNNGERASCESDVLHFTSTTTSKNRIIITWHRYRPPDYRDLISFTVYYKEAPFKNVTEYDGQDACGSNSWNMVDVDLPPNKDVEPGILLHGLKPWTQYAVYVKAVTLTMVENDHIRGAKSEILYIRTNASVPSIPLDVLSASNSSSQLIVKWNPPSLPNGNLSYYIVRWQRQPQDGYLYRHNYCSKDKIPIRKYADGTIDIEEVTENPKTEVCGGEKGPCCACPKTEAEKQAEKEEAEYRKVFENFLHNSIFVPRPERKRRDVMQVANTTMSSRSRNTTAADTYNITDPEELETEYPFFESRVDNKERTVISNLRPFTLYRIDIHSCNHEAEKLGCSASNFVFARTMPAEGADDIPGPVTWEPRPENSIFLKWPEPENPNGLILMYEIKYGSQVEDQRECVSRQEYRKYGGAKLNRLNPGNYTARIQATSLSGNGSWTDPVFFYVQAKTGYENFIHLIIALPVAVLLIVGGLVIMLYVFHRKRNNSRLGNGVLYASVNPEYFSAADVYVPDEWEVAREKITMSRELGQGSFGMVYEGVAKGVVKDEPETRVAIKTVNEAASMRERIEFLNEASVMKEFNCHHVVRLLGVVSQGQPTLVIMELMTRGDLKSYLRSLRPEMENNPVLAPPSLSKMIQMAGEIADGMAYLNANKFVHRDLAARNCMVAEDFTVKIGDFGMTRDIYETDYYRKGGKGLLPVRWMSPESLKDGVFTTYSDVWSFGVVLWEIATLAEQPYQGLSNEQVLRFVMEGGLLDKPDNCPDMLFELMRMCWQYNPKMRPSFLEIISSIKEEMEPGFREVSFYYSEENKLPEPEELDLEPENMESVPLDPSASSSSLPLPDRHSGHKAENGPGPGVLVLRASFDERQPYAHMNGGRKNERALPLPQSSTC

This experiment concerns the target T1, IGF-1R (Homo sapiens, UniProt P08069).
T1 construct: expressed in transfected cells; host or cells: NIH3T3 (3T3/IGF-1R)
Description: IGF-I receptor ELISA in 3T3/IGF-1R cells. Format: cell-based. The conditions noted are these: 50% inhibition of PTK activity over control. As for the experimental part:
The cellular/catalytic assays described herein are performed in an ELISA format. The general procedure is a follows: a compound is introduced to cells expressing the test kinase, either naturally or recombinantly, for some period of time after which, if the test kinase is a receptor, a ligand known to activate the receptor's activity is added. The cells are lysed and the lysate is transferred to the wells of an ELISA plate previously coated with a specific antibody recognizing the substrate of the enzymatic phosphorylation reaction. Non-substrate components of the cell lysate are washed away and the amount of phosphorylation on the substrate is detected with an antibody specifically recognizing phosphotyrosine compared with control cells that were not contacted with a test compound.
The following protocol may be used to measure phosphotyrosine level on IGF-I receptor, which indicates IGF-I receptor tyrosine kinase activity.
The following materials and reagents are used:
a. The cell line used in this assay is 3T3/IGF-1R, a cell line genetically engineered to overexpresses IGF-1 receptor.
b. NIH3T3/IGF-1R is grown in an incubator with 5% CO2 at 37° C. The growth media is DMEM+10% FBS (heat inactivated)+2 mM L-glutamine.
c. Affinity purified anti-IGF-1R antibody 17-69.
e. Blocking Buffer: TBST plus 5% Milk (Carnation Instant Non-Fat Dry Milk).
Stock solution of TBS (10×) is prepared, and Triton X-100 is added to the buffer during dilution.
Stock solution (5×) is prepared and kept at 4° C.
h. EDTA/HCl: 0.5 M pH 7.0 (NaOH) as 100×stock.
i. Na3VO4: 0.5 M as 100×stock and aliquots are kept in −80° C.
k. Insulin-like growth factor-1 from Promega (Cat# G5111).
l. Rabbit polyclonal anti-phosphotyrosine antiserum.
m. Goat anti-rabbit IgG, POD conjugate (detection antibody), Tago (Cat. No. 4520, Lot No. 1802): Tago, Inc., Burlingame, Calif.
n. ABTS (2,2′-azinobis(3-ethylbenzthiazolinesulfonic acid)) solution:
ABTS solution should be kept in dark and 4° C. The solution should be discarded when it turns green.
o. Hydrogen Peroxide: 30% solution is kept in the dark and at 4° C.
All the following steps are conducted at room temperature unless it is specifically indicated. All ELISA plate washings are performed by rinsing the plate with tap water three times, followed by one TBST rinse. Pat plate dry with paper towels.
1. The cells, grown in tissue culture dish (Corning 25020-100) to 80-90% confluence, are harvested with Trypsin-EDTA (0.25%, 0.5 mL/D-100, GIBCO).
2. Resuspend the cells in fresh DMEM+10% FBS+2 mM L-Glutamine, and transfer to 96-well tissue culture plate (Corning, 25806-96) at 20,000 cells/well (100 μL/well). Incubate for 1 day then replace medium to serum-free medium (90/μL) and incubate in 5% CO2 and 37° C. overnight.
B. ELISA Plate Coating and Blocking:
1. Coat the ELISA plate (Corning 25805-96) with Anti-IGF-1R Antibody at 0.5 μg/well in 100 μL PBS at least 2 hours.
2. Remove the coating solution, and replace with 100 μL Blocking Buffer, and shake for 30 minutes. Remove the blocking buffer and wash the plate just before adding lysate.
1. The drugs are tested in serum-free condition.
2. Dilute drug stock (in 100% DMSO) 1:10 with DMEM in 96-well poly-propylene plate, and transfer 10 μL/well of this solution to the cells to achieve final drug dilution 1:100, and final DMSO concentration of 1.0%. Incubate the cells in 5% CO2 at 37° C. for 2 hours.
3. Prepare fresh cell lysis buffer (HNTG*)
4. After drug incubation for two hours, transfer 10 μL/well of 200 nM IGF-1 Ligand in PBS to the cells (Final Conc.=20 nM), and incubate at 5% CO2 at 37° C. for 10 minutes.
5. Remove media and add 100 μL/well HNTG* and shake for 10 minutes. Look at cells under microscope to see if they are adequately lysed.
6. Use a 12-channel pipette to scrape the cells from the plate, and homogenize the lysate.by repeated aspiration and dispensing. Transfer all the lysate to the antibody coated ELISA plate, and shake for 1 hour.
7. […]
For orientation: In an ELISA, binding on a coated surface is turned into a signal by an enzyme label.
For the compound `CCOC(=O)c1c(C)[nH]c(C=C2C(=O)Nc3ccc(Br)cc32)c1C` [3-(2,4-dimethyl-3-ethoxycarbonylpyrrol-5-methylidenyl)-5-bromo-2-indolinone], the pIC50 was under 4.00. For the compound `COC(=O)CCc1c[nH]c(C=C2C(=O)Nc3ccccc32)c1C` [3-[4-(2-methoxycarbonylethyl-3-methylpyrrol-2-methylidenyl]-2-indolinone], the pIC50 is under 4.00.

Compound `CCOC(=O)c1[nH]c(C=C2C(=O)Nc3ccccc32)c(C(C)=O)c1C` [3-(4-acetyl-2-ethoxycarbonyl-3-methylpyrrol-5-methylidenyl)-2-indolinone] showed a pIC50 of under 5.00. Regarding `COC(=O)Cc1c(Cl)[nH]c(C=C2C(=O)Nc3ccccc32)c1C(=O)OC` [3-(2-chloro-4-methoxycarbonyl-3-methoxycarbonylmethylpyrrol-5-methylidenyl)-2-indolinone], the pIC50 was under 4.30. `CCOC(=O)c1c[nH]c(C=C2C(=O)Nc3ccccc32)c1C` [3-(4-ethoxycarbonyl-3-methylpyrrol-2-methylidenyl)-2-indolinone] showed a pIC50 of under 4.00. In the case of `CCOC(=O)c1c(C)[nH]c(C=C2C(=O)Nc3ccc(NC(=O)c4ccc(C(=O)OC)cc4)cc32)c1C` [3-(2,4-dimethyl-3-ethoxycarbonylpyrrol-5-methylidenyl)-5-(4-methoxycarbonylbenzamido)-2-indolinone] it was under 5.00. With `CCOC(=O)CCc1c(C(=O)OCC)[nH]c(C=C2C(=O)Nc3ccccc32)c1CC(=O)OCC` [3-[2-ethoxycarbonyl-3-(2-ethoxycarbonylethyl)-4-ethoxycarbonylmethyl)pyrrol-5-methylidenyl)-2-indolinone], the negative logarithm of the IC50 (pIC50) was under 5.00. Then `COC(=O)CCc1c[nH]c(C=C2C(=O)Nc3cc(OC)c(OC)cc32)c1C` [3-[4-(2-methoxycarbonylethyl)-3-methylpyrrol-2-methylidenyl]-5,6-dimethoxy-2-indolinone], with under 4.30; and `CC(=O)c1[nH]c(C=C2C(=O)Nc3ccccc32)c(C)c1C` [3-(2-acetyl-3,4-dimethylpyrrol-5-methylidenyl)-2-indolinone], with under 4.00; and `Cc1c[nH]c(C=C2C(=O)Nc3ccccc32)c1CCC(=O)O` [3-[3-(2-carboxyethyl-4-methylpyrrol-2-methylidenyl]-2-indolinone], with under 4.00.

Usually pIC50 stands for the IC50 on a negative log10 scale, so that one unit is a factor of ten. Lower therefore signals a large IC50.
